From patent US8541575B2, “3,4-diarylpyrazoles as protein kinase inhibitors” (Nerviano Medical Sciences S.R.L., priority 2008, dated 2013) come the findings set out here.

A word on the IC50: it is the concentration that inhibits the measured activity by half.

Holding throughout (format): cell-based
Experiment [1] has as its system human melanoma cells A375 (with a mutated B-RAF). The experiment can be described thus: In vitro cell proliferation assay, A375. Particulars: A-375, 72 hours treatment, cellular ATP readout. The method, then:
(§1) In Vitro Cell Proliferation Assay
(§2) Exponentially growing human melanoma cells A375 (with a mutated B-RAF) and human melanoma cells Mewo (with wild-type B-Raf) were seeded and incubated at 37° C. in a humidified 5% CO2 atmosphere. After 24 hours, scalar doses of the compound were added to the medium and cells oncubated for 72 hours. At the end of treatment, cells were washed and counted. Cell number was determined by a cellular adenosine triphosphate monitoring system. Cell proliferation was compared to control cells and the concentration inhibiting cell growth by 50% was calculated.

The test system of experiment [2] is human melanoma cells Mewo (with wild-type B-Raf). The experiment in a line: In vitro cell proliferation assay, Mewo. Particulars: 72 hours treatment, cellular ATP readout. On the procedure:
as §1, §2

Experiment [3] deals with p-MAPK (T202/Y204) in A375 human melanoma cells, having a mutated B-RAF. The experiment in a line: p-MAPK (T202/Y204) ArrayScan assay. The settings on record: A-375, treated 1.5 or 2 hours, p-MAPK cytoplasmatic fluorescence, read-out: Array Scan A375 IC50. On the procedure: p-MAPK (T202/Y204) ArrayScan Assay
A375 human melanoma cells, having a mutated B-RAF, are seeded in 384-well poly-lysine coated plates (Matrix) at a density of 1000 cells/well with appropriate medium supplemented with 10% FCS and incubated for 16-24 hours. Cells are treated for 1.5 or 2 hours with increasing doses of compounds (starting dose 10 μM, dilution factor 2.5). At the end of the treatment cells are fixed with p-formaldehyde 3.7% for 15-30 min, then washed twice with D-PBS […] and permeabilized with D-PBS containing 0.1% Triton X-100 and 1% BSA (Sigma-Aldrich) for 15 minutes at room temperature (staining solution). Anti-phospho-MAPK (T202/Y204) monoclonal antibody E10 (Cell Signaling, cat. #9106) diluted 1:100 is added in staining solution and incubated for 1 hour at 37° C. After removal of the primary antibody solution, the anti-mouse Cy™2-conjugated (Green) secondary antibody (Amersham) diluted 1:500 in staining solution containing 2 μg/ml DAPI is added. The plate is incubated for 1 hour at 37° C., washed twice and then red with Cellomics' ArrayScan VTI (4 fields/well, CytoNucTrans algorithm).
The parameter “MEAN_RingAvgIntenCh2”, which measures the mean cytoplasmatic fluorescence intensity associated to p-MAPK staining, is reported as the final result.

With `CC(C)(C)c1ccc(NC(=O)c2cccc(-c3n[nH]cc3-c3ccncc3)c2)cc1` [Cmpd. 4, N-(4-tert-Butyl-phenyl)-3-(4-pyridin-4-yl-1H-pyrazol-3-yl)-benzamide], the IC50 in experiment [1] came to 2310 nM; in experiment [2], 5840 nM; in experiment [3], 1260 nM.
Regarding `CCNc1nccc(-c2c[nH]nc2-c2cccc(NS(=O)(=O)c3cc(F)ccc3F)c2)n1` [compound 55, N-(3-{4-[2-(ethylamino)pyrimidin-4-yl]-1H-pyrazol-3-yl}phenyl)-2,5-difluorobenzenesulfonamide], the IC50 was 1250 nM in experiment [1], more than 10000 nM in experiment [2] and 170 nM in experiment [3].
On to `O=C(Nc1ccc(Cl)cc1)Nc1cccc(-c2n[nH]cc2-c2ccncc2)c1` [compound 9, 1-(4-Chloro-phenyl)-3-[3-(4-pyridin-4-yl-1H-pyrazol-3-yl)-phenyl]-urea], for which the IC50 in experiment [1] was 4100 nM; in experiment [2], more than 10000 nM; in experiment [3] it was 4800 nM.
In the case of `CC(C)C(=O)Nc1cc(-c2c[nH]nc2-c2cccc(NC(=O)Nc3ccc(C(F)(F)F)cc3)c2)ccn1` [compound 40, 2-methyl-N-(4-{3-[3-({[4-(trifluoromethyl)phenyl]carbamoyl}amino)phenyl]-1H-pyrazol-4-yl}pyridin-2-yl)propanamide], the IC50 was 3630 nM in experiment [1], more than 10000 nM in experiment [2] and 1750 nM in experiment [3].
As to `Cn1cc(-c2ccncc2)c(-c2cccc(NC(=O)Nc3ccc(C(F)(F)F)cc3)c2)n1` [Cmpd. 48, 1-[3-(1-Methyl-4-pyridin-4-yl-1H-pyrazol-3-yl)-phenyl]-3-(4-trifluoromethyl-phenyl)-urea], the results for the concentration for half-maximal inhibition (IC50) in experiment [1], in experiment [2] and in experiment [3] were 3860 nM, more than 10000 nM and 1790 nM, respectively.
On to `CCn1cc(-c2ccncc2)c(-c2cccc(NC(=O)Nc3ccc(C(F)(F)F)cc3)c2)n1` [compound 10, 1-[3-(1-Ethyl-4-pyridin-4-yl-1H-pyrazol-3-yl)-phenyl]-3-(4-trifluoromethyl-phenyl)-urea], for which the IC50 in experiment [1] amounted to 1630 nM; in experiment [2], 7500 nM; in experiment [3] it was 540 nM.
For the compound `O=S(=O)(Nc1cccc(-c2n[nH]cc2-c2ccncc2)c1)c1cc(F)ccc1F` [Cmpd. 2, 2,5-Difluoro-N-[3-(4-pyridin-4-yl-1H-pyrazol-3-yl)-phenyl]-benzenesulfonamide], the figures for the IC50 in experiment [1], in experiment [2] and in experiment [3] were 1400 nM, more than 10000 nM and 640 nM, respectively.
`Nc1nccc(-c2c[nH]nc2-c2cccc(NC(=O)Nc3ccc(C(F)(F)F)cc3)c2)n1` [compound 31, 1-{3-[4-(2-aminopyrimidin-4-yl)-1H-pyrazol-3-yl]phenyl}-3-[4-(trifluoromethyl)-phenyl]urea]: the 50% inhibitory concentration (IC50) in experiment [1] is 2700 nM; in experiment [2], more than 10000 nM; in experiment [3] it was 730 nM.
Turning to `N#CCn1cc(-c2ccncc2)c(-c2cccc(NC(=O)Nc3ccc(C(F)(F)F)cc3)c2)n1` [compound 11, 1-[3-(1-Cyanomethyl-4-pyridin-4-yl-1H-pyrazol-3-yl)-phenyl]-3-(4-trifluoromethyl-phenyl)-urea], the concentration for half-maximal inhibition (IC50) is 1130 nM in experiment [1], 7690 nM in experiment [2] and 230 nM in experiment [3].
Regarding `O=C(Nc1ccc(C(F)(F)F)cc1)Nc1cccc(-c2nn(CCO)cc2-c2ccncc2)c1` [Cmpd. 14, 1-{3-[1-(2-Hydroxy-ethyl)-4-pyridin-4-yl-1H-pyrazol-3-yl]-phenyl}-3-(4-trifluoromethyl-phenyl)-urea], the figures for the 50% inhibitory concentration (IC50) in experiment [1], in experiment [2] and in experiment [3] were 6940 nM, more than 10000 nM and 2630 nM, respectively.
On to `CC(C)Cn1cc(-c2ccncc2)c(-c2c(F)ccc(NS(=O)(=O)c3cc(F)ccc3F)c2F)n1` [compound 56, N-[3-(1-i-Butyl-4-pyridin-4-yl-1H-pyrazol-3-yl)-2,4-difluoro-phenyl]-2,5-difluoro-benzenesulfonamide], for which the IC50 was less than 20 nM in experiment [1], more than 10000 nM in experiment [2] and less than 10 nM in experiment [3].
In the same order, the values of `O=S(=O)(Nc1ccc(F)c(-c2n[nH]cc2-c2ccncc2)c1F)c1ccsc1` [Cmpd. 19, Thiophene-3-sulfonic acid [2,4-difluoro-3-(4-pyridin-4-yl-1H-pyrazol-3-yl)-phenyl]-amide] are 3170 nM, more than 10000 nM and 830 nM.
`CCCS(=O)(=O)Nc1ccc(F)c(-c2n[nH]cc2-c2ccncc2)c1F` [Cmpd. 21, Propane-1-sulfonic acid [2,4-difluoro-3-(4-pyridin-4-yl-1H-pyrazol-3-yl)-phenyl]-amide]: the IC50 was 4280 nM in experiment [1], more than 10000 nM in experiment [2] and 1790 nM in experiment [3].
On to `CCNc1cc(-c2c[nH]nc2-c2c(F)ccc(NS(=O)(=O)c3cc(F)ccc3F)c2F)ccn1` [compound 54, N-{3-[4-(2-Ethylamino-pyridin-4-yl)-1H-pyrazol-3-yl]-2,4-difluoro-phenyl}-2,5-difluoro-benzenesulfonamide], for which the IC50 was 970 nM in experiment [1], more than 10000 nM in experiment [2] and 310 nM in experiment [3].
As to `CCC(=O)Nc1cc(-c2c[nH]nc2-c2cccc(NC(=O)Nc3ccc(C(F)(F)F)cc3)c2)ccn1` [compound 39, N-(4-{3-[3-({[4-(trifluoromethyl)phenyl]carbamoyl}amino)phenyl]-1H-pyrazol-4-yl}pyridin-2-yl)propanamide], the IC50 in experiment [1] is 1140 nM; in experiment [2], more than 10000 nM; in experiment [3] it was 2320 nM.
Regarding `O=C(Nc1ccc(C(F)(F)F)cc1)Nc1cccc(-c2nn(CCF)cc2-c2ccncc2)c1` [Cmpd. 13, 1-{3-[1-(2-Fluoro-ethyl)-4-pyridin-4-yl-1H-pyrazol-3-yl]-phenyl}-3-(4-trifluoromethyl-phenyl)-urea], the half-inhibitory concentration (IC50) in experiment [1] was found to be 1380 nM; in experiment [2], 8110 nM; in experiment [3], 560 nM.
As for `Cc1ccc(NC(=O)Nc2cccc(-c3n[nH]cc3-c3ccncc3)c2)cc1` [compound 8, 1-[3-(4-Pyridin-4-yl-1H-pyrazol-3-yl)-phenyl]-3-p-tolyl-urea], the IC50 is 4480 nM in experiment [1], more than 10000 nM in experiment [2] and 1450 nM in experiment [3].
